From patent US5527820A, “Antibiotics having immunosuppressive activity, delaminomycins and processes for the production of the same” (priority 1992, dated 1996)
In brackets after ≈: the same amount, converted by molar mass.

Assays:
Xanthomonas citri = experiment: MIC, agar plate dilution method; type: cell-based; conditions: 27° C., 42 hours, nutrient agar containing glucose
Description: (§1) Delaminomycins A, B, C, A2, B2 and C2 according to this invention further have an antibacterial activity against a variety of bacteria. The minimum growth inhibitory concentrations (MIC) (μg/ml) of the novel antibiotics of this invention on various bacteria and fungi as measured by the agar plate dilution method are shown in Table 5a, Table 5b, Table 5c and Table 5d below.
(§2) Evaluated after culturing at 27° C. for 42 hours in nutrient agar
(§3) medium containing glucose.

Cochliobolus miyabeanus = experiment: MIC, agar plate dilution method; type: cell-based; conditions: Bipolaris oryzae; 27° C., 42 hours, nutrient agar containing glucose
Description: as §1, §2, §3

Mouse leukemia P388D1 = experiment: Inhibitory activity on proliferation of cancer cells; type: cell-based
[1] = in vivo
[2] = system: Trichophyton asteroides 429; experiment: MIC, agar plate dilution method; type: cell-based; conditions: 27° C., 42 hours, nutrient agar containing glucose
Human Lymphoma Jurkat = experiment: Inhibitory activity on proliferation of cancer cells; type: cell-based
[3] = system: delayed-type hypersensitivity (DTH); experiment: Suppressive effect on delayed-type hypersensitivity (DTH) in mouse, oral; type: in vivo, mouse (CDF1); conditions: oral once a day, 0~4th day
Description: (§4) CDF1 mice were immunized by intravenously injecting sheep red blood cells (10^5 cells/mouse). On the 4th day after the immunization, sheep red blood cells (10^8 cells/mouse) were subcutaneously injected into the footpad of mice for the elicitation to cause a delayed-type hypersensitivity. Test compound was orally administered to the mice once a day from the 0 th day to the 4 th day after the immunization. On the 5th day after the elicitation, the thickness of the mouse footpad was measured to estimate the suppressive effect of the test compound on DTH. The suppressive effect of the test compound was evaluated in terms of the inhibition rate (%) as calculated according to the following equation:
(§5) Inhibition rate (%)=100-(T/C×100)
wherein T denotes the thickness of the footpad when the test compound was administered, but C denotes the thickness of the footpad when no test compounnd was administered.

[4] = system: Saccharomyces cerevisiae F-7; experiment: MIC, agar plate dilution method; type: cell-based; conditions: F7, 27° C., 42 hours, nutrient agar containing glucose
Candida tropicalis F-1 = experiment: MIC, agar plate dilution method; type: cell-based; conditions: F1, 27° C., 42 hours, nutrient agar containing glucose
[5] = system: Cryptococcus neoformans F-10; experiment: MIC, agar plate dilution method; type: cell-based; conditions: F10, 27° C., 42 hours, nutrient agar containing glucose
Piricularia oryzae = experiment: microbe, parasite or virus in culture; type: cell-based; conditions: 42 h
Mouse leukemia EL-4 = experiment: Inhibitory activity on proliferation of cancer cells; type: cell-based; conditions: EL4
Candida krusei F-5 = experiment: MIC, agar plate dilution method; type: cell-based; conditions: Pichia kudriavzevii, F5; 27° C., 42 hours, nutrient agar containing glucose
Candida albicans 3147 = experiment: MIC, agar plate dilution method; type: cell-based; conditions: 27° C., 42 hours, nutrient agar containing glucose
[6] = system: Candida pseudotropicalis F-2; experiment: MIC, agar plate dilution method; type: cell-based; conditions: Kluyveromyces marxianus, F2; 27° C., 42 hours, nutrient agar containing glucose
[7] = system: Trichophyton mentagrophytes F-15 (833); experiment: MIC, agar plate dilution method; type: cell-based; conditions: 27° C., 42 hours, nutrient agar containing glucose
Pellicularia sasakii = experiment: MIC, agar plate dilution method; type: cell-based; conditions: 27° C., 42 hours, nutrient agar containing glucose
Gram-positive bacteria = experiment: Antibacterial activity to Gram-positive bacteria; type: cell-based; conditions: result in words
From the text: as §1

[8] = system: nylon wool-passed cells of spleen cells (responder cell; T cells); experiment: Inhibitory activity to the mixed lymphocyte culture reaction; type: cell-based, rat (Fischer F344 responder; WKY stimulator)
Mouse melanoma B-16 = experiment: Inhibitory activity on proliferation of cancer cells; type: cell-based; conditions: B16
Candida Yu-1200 = experiment: MIC, agar plate dilution method; type: cell-based; conditions: YU1200, 27° C., 42 hours, nutrient agar containing glucose
Aspergillus niger F-16 = experiment: MIC, agar plate dilution method; type: cell-based; conditions: F16, 27° C., 42 hours, nutrient agar containing glucose
Mouse leukemia L-1210 = experiment: Inhibitory activity on proliferation of cancer cells; type: cell-based; conditions: L1210
[9] = system: spleen cells (T cells activated by Concanavalin A); experiment: Inhibitory activity against blastogenesis and proliferation of spleen cells caused by mitogen (Con A); type: cell-based, mouse (CDF1)
[10] = system: delayed-type hypersensitivity (DTH); experiment: Suppressive effect on delayed-type hypersensitivity (DTH) in mouse, intraperitoneal; type: in vivo, mouse (CDF1); conditions: intraperitoneal once a day, 0-4th day
From the text: Suppressive effect of delaminomycins on delayed-type hypersensitivity (DTH) in mouse
as §4, with “hypersensitivity (DTH).” for “hypersensitivity.”, “intraperitoneally” for “orally”, “0th” for “0 th”, “4th” for “the 4 th”, “elicitation” for “elicitation,”, “the DTH response.” for “DTH.”
as §5
wherein T denotes the thickness of the footpad when administering the test compound, but C denotes the thickness of the footpad when administering no test compound.

SMILES: CCC(O)C(C)/C=C/C=C/C1CC2C=CC3CC(C)CC(C)C3C2(C)C(=O)C12C(=O)NC(O)C2=O (stereo not drawn) [Delaminomycin A2]
- MIC (Xanthomonas citri): > 100 µg/mL
- MIC (Cochliobolus miyabeanus): > 100 µg/mL
- IC50 (Mouse leukemia P388D1): 10 µg/mL (≈ 20.7 µM)
- absorption into the digestive tracts / oral absorption [1]: hardly absorbed into the digestive tracts
- MIC [2]: > 100 µg/mL
- IC50 (Human Lymphoma Jurkat): 5.9 µg/mL (≈ 12.2 µM)
- Inhibition rate (DTH footpad thickness) ([3]; 0.5 mg/mouse): 7.7%
- Inhibition rate (DTH footpad thickness) ([3]; 2.0 mg/mouse): 23.4%
- Inhibition rate (DTH footpad thickness) ([3]; 8.0 mg/mouse): 36.1%
- MIC [4]: > 100 µg/mL
- MIC (Candida tropicalis F-1): > 100 µg/mL
- MIC [5]: > 100 µg/mL
- MIC (Piricularia oryzae): > 100 µg/mL
- IC50 (Mouse leukemia EL-4): 4.1 µg/mL (≈ 8.48 µM)
- MIC (Candida krusei F-5): > 100 µg/mL
- MIC (Candida albicans 3147): > 100 µg/mL
- MIC [6]: > 100 µg/mL
- MIC [7]: > 100 µg/mL
- MIC (Pellicularia sasakii): > 50 µg/mL
- antibacterial activity to Gram-positive bacteria (Gram-positive bacteria): antibacterial activity to Gram-positive bacteria
- inhibition at 0.1 µg/mL ([8]; Rattus norvegicus, T-cell, 0.10 μg/ml test compound, read-out: Inhibition rate): 16%
- inhibition at 0.39 µg/mL ([8]; Rattus norvegicus, T-cell, 0.39 μg/ml test compound, read-out: Inhibition rate): 5%
- inhibition at 1.56 µg/mL ([8]; Rattus norvegicus, T-cell, 1.56 μg/ml test compound, read-out: Inhibition rate): 0%
- inhibition at 25 µg/mL ([8]; Rattus norvegicus, T-cell, 25 μg/ml test compound, read-out: Inhibition rate): 94%
- inhibition at 100 µg/mL ([8]; Rattus norvegicus, T-cell, 100 μg/ml test compound, read-out: Inhibition rate): 56%
- IC50 ([8]; Rattus norvegicus, T-cell, 120 hours, 3H-thymidine incorporation, read-out: IC50 (inhibition of mixed lymphocyte culture reaction)): 13.9 µg/mL (≈ 28.7 µM)
- activity to inhibit the proliferation of the T cells (responder cell) in mixed lymphocyte culture reaction ([8]; in vitro, result in words): have an activity to inhibit the reaction of proliferation of the T cells
- IC50 (Mouse melanoma B-16): 8.3 µg/mL (≈ 17.2 µM)
- MIC (Candida Yu-1200): > 100 µg/mL
- MIC (Aspergillus niger F-16): > 100 µg/mL
- IC50 (Mouse leukemia L-1210): 3.7 µg/mL (≈ 7.65 µM)
- IC50 ([9]; Mus musculus, T-cell, read-out: IC50 (inhibition of blastogenesis and proliferation of spleen lymphocyte caused by Con A)): 0.78 µg/mL (≈ 1.61 µM)
- inhibition at 0.2 µg/mL ([9]; Mus musculus, T-cell, 0.20 μg/ml test compound, read-out: Inhibition rate): 1.5%
- inhibition at 0.78 µg/mL ([9]; Mus musculus, T-cell, 0.78 μg/ml test compound, read-out: Inhibition rate): 50.5%
- inhibition at 3.1 µg/mL ([9]; Mus musculus, T-cell, 3.1 μg/ml test compound, read-out: Inhibition rate): 76.3%
- inhibition at 12.5 µg/mL ([9]; Mus musculus, T-cell, 12.5 μg/ml test compound, read-out: Inhibition rate): 95.1%
- inhibition at 50 µg/mL ([9]; Mus musculus, T-cell, 50 μg/ml test compound, read-out: Inhibition rate): 96.5%
- activity inhibitory to the reaction of proliferation of mouse spleen cells activated with Concanavalin A ([9]; in vitro, result in words): exhibit an activity inhibitory to the reaction of proliferation of mouse spleen cells
- Inhibition rate (DTH footpad thickness) ([10]; 15.6 μg/mouse): 1.9%
- Inhibition rate (DTH footpad thickness) ([10]; 62.5 μg/mouse): 3.5%
- Inhibition rate (DTH footpad thickness) ([10]; 250 μg/mouse): 26.6%
- Inhibition rate (DTH footpad thickness) ([10]; 1000 μg/mouse): 99.3%
